Earlier results as cited in patent US20220362213A1, “METHODS FOR TREATING POST ENDOSCOPIC RETROGRADE CHOLANGIOPANCREATOGRAPHY PANCREATITIS” (priority 2021, published 2022).

Tests used:
post-ERCP pancreatitis [1] = conditions: single-dose rectal; meta-analysis of preliminary studies
post-ERCP pancreatitis [2] = conditions: for preventing post-ERCP pancreatitis: two large controlled trials, pharmacologic prevention in high-risk patients

Molecule	protective effects in post-ERCP pancreatitis (post-ERCP pancreatitis [1])	preventing post-ERCP pancreatitis (post-ERCP pancreatitis [2])	other results
O=C(O)Cc1ccccc1Nc1c(Cl)cccc1Cl [diclofenac]	benefit	–	–
COc1ccc2c(c1)c(CC(=O)O)c(C)n2C(=O)c1ccc(Cl)cc1 [indomethacin]	benefit	–	–
secretin	–	–	incidence of post-ERCP pancreatitis (post-ERCP pancreatitis [2]; retrospective review of 4833 ERCP procedures, patients without pancreas divisum): might decrease the incidence
C[C@@H](O)[C@@H]1NC(=O)[C@H](CCCCN)NC(=O)[C@@H](Cc2c[nH]c3ccccc23)NC(=O)[C@H](Cc2ccccc2)NC(=O)[C@@H](NC(=O)[C@H](N)Cc2ccccc2)CSSC[C@@H](C(=O)N[C@H](CO)[C@@H](C)O)NC1=O [octreotide]	–	ineffective	hyperamylasemia (post-ERCP pancreatitis [2]; after ERCP): reduces hyperamylasemia; clinical course of post-ERCP pancreatitis (post-ERCP pancreatitis [2]; human, in vivo): has not been shown to alter the clinical course
CCOC(=O)c1ccc(OC(=O)CCCCCNC(=N)N)cc1 [gabexate]	–	ineffective	reducing the frequency of post-ERCP pancreatitis (post-ERCP pancreatitis [2]; prophylaxis, meta-analysis of 28 clinical trials): effective
